Laboratory results as given in publication PMC10598797, “Molecular View on the iRGD Peptide Binding Mechanism: Implications for Integrin Activity and Selectivity Profiles” (Journal of Chemical Information and Modeling, 2023).

Assays:
neuropilin-1 (NRP-1) = conditions: cited from earlier work
Text: (§1) The striking iRGD’s tumor-homing activity is linked to the marked overexpression of RGD integrins on the cancer cell membrane.[38]−[40] […] This can be correlated to the peculiar multistage internalization process of iRGD, where the binding to integrins represents only the first step.[16]

tumor = conditions: cited from earlier work
Text: (§2) Nowadays, the clinical efficacy of chemotherapeutic drugs is frequently hampered either by a lack of selectivity over healthy cells or by poor pharmacokinetic properties, including cancer homing and penetration. This is especially true for solid tumors, which are frequently characterized by the upregulation of junction proteins such as desmoglein 2 (DSG2) and E-cadherin, and extracellular matrix (ECM) components (i.e., fibrinogen and collagen), which form a physical barrier against the intracellular transport of exogenous molecules.[1] For these reasons, anticancer compounds often need to be a ...

[1] = tested on: metastatic pancreatic ductal adenocarcinoma (PDAC); conditions: phase I trial, combination with nab-paclitaxel and gemcitabine; cited from earlier work
Text: as §2

αvβ5 = molecular target: T1, αvβ5 (Homo sapiens, UniProt P06756+P18084); assay: Solid-phase integrin binding assay, αvβ5
T1 construct: purchased R&D Systems, Inc
Protocol: (§3) Purified αvβ3 (Sino Biological Europe GmbH) and αvβ5 (R&D Systems, Inc.) were diluted to 0.5 μg/mL, while αvβ6 (Sino Biological Europe GmbH) was diluted to 1 μg/mL in coating buffer containing Tris–HCl (20 mmol/L; pH 7.4), NaCl (150 mmol/L), MnCl2 (1 mmol/L), CaCl2 (2 mmol/L), and MgCl2 (1 mmol/L). An aliquot of diluted receptors (100 μL per well) was added to 96-well microtiter plates (Nunc MW96F Maxisorp Straight) and incubated overnight at 4 °C. The plates were then incubated with blocking solution (coating buffer plus 1% bovine serum albumin) for an additional 2 h at room temperature to block nonspecific binding, followed by 3 h incubation at room temperature with various concentrations of test compounds in the presence of, respectively, vitronectin (1 μg/mL, Sigma-Aldrich) for αvβ3 and αvβ5 and fibronectin for αvβ6 (1 μg/mL, Sigma-Aldrich) biotinylated using the EZ-Link Sulfo-NHS-Biotinylation kit (Thermo Fisher). […] Absorbance at 415 nm was read with a BMG Labtech Fluostar Optima microplate reader. All of the experiments were performed in triplicates, and the data collected were analyzed using the GraphPad 5.0 Software Package (GraphPad Prism, San Diego, CA).

[2] = cited from earlier work
Text: as §1

tumor migration = conditions: in vitro, CendR- and NRP-1-dependent; cited from earlier work
Text: as §1

αvβ6 = molecular target: T2, αvβ6 (Homo sapiens, UniProt P06756+P18564); assay: Solid-phase integrin binding assay, αvβ6; conditions: αvβ6 1 μg/mL coated overnight at 4 °C; biotinylated fibronectin 1 μg/mL; 3 h incubation at room temperature; pH 7.4; absorbance 415 nm; mean of three independent experiments ± SEM
T2 construct: purchased Sino Biological Europe GmbH
T2 sequence (P06756 31-992 limits assumed): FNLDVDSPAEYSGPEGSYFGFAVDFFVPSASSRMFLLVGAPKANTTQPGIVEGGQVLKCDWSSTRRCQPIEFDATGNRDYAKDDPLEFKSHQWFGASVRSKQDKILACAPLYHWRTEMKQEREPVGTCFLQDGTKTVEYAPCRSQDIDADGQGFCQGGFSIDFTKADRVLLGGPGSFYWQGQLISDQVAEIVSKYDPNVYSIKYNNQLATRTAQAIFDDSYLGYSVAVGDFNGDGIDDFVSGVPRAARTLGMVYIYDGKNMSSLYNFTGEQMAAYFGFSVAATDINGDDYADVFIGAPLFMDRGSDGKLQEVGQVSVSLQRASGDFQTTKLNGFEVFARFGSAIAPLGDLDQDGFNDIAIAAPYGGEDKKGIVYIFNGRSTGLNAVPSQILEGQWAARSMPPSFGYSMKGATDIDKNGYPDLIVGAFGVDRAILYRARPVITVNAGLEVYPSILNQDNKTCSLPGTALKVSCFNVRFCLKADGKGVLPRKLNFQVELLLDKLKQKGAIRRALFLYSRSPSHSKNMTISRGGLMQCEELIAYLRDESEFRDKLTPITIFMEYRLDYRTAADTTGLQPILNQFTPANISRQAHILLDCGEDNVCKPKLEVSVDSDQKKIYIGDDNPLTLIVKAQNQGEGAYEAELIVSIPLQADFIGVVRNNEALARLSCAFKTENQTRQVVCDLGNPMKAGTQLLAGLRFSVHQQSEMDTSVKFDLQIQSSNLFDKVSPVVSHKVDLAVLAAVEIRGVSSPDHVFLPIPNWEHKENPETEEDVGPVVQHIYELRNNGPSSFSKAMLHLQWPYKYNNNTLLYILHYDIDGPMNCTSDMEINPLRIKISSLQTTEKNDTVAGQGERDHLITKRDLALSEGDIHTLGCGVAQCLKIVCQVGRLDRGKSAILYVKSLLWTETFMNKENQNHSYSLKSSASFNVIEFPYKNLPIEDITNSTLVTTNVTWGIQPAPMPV
T2 sequence (P18564 22-707 limits assumed): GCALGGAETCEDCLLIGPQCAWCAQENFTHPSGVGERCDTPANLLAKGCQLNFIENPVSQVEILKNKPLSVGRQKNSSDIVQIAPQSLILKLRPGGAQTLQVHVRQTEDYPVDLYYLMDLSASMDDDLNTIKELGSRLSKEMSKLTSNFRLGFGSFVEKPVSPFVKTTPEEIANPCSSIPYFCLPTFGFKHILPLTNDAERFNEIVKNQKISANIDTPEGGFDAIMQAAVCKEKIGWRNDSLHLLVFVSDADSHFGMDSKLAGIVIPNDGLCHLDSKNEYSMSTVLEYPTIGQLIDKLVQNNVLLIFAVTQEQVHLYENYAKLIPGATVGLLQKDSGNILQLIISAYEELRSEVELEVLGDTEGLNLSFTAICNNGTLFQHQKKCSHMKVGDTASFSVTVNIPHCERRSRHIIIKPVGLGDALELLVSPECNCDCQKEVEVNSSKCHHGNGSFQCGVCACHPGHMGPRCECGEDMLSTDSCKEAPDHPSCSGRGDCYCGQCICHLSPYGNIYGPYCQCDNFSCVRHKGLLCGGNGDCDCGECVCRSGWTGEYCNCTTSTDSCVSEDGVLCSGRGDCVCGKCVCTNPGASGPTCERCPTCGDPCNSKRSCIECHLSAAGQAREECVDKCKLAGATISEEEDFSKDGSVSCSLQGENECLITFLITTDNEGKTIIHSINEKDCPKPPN
Protocol: as §3

T1 sequence (P06756 31-992 limits assumed): as the sequence (P06756 31-992 limits assumed) above
T1 sequence (P18084 24-719 limits assumed): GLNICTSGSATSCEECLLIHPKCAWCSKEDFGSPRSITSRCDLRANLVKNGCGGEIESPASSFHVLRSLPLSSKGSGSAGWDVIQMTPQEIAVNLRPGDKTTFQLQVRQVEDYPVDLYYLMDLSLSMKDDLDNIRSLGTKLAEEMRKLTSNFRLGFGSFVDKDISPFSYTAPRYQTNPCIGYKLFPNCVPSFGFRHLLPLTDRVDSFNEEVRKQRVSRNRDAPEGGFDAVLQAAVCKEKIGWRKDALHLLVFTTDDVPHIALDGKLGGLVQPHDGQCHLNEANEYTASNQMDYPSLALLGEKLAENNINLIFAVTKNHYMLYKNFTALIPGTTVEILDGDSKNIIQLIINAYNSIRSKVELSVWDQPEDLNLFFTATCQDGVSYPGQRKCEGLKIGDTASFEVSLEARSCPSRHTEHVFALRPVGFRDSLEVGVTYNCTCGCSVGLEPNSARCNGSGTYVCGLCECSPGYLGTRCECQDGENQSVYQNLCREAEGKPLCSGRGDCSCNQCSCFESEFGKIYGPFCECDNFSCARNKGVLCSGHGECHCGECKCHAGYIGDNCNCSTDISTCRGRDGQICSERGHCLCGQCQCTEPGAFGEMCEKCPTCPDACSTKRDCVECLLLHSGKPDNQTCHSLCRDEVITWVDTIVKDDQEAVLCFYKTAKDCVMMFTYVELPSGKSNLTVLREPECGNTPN

potency toward αvβ5 (in words) (αvβ5) | IC50 (αvβ6) [nM] | Molecule | internalization upon binding to NRP-1 (neuropilin-1 (NRP-1)) | tumor endocytosis of cytotoxic agents (tumor) | progression-free survival [1] | site of proteolytical cleavage [2] | effect on tumor migration and chemorepulsion (tumor migration)
– | – | CRGDK [CendR motif] | triggers the internalization of the peptide–receptor complex | – | – | – | –
mid-low nanomolar potency | 191 ± 44 | N=C(N)NCCC[C@@H]1NC(=O)[C@@H](N)CSSC[C@@H](C(=O)O)NC(=O)[C@H](CC(=O)O)NC(=O)[C@@H]2CCCN2C(=O)CNC(=O)[C@H](CCCCN)NC(=O)[C@H](CC(=O)O)NC(=O)CNC1=O [1 (iRGD)] | – | enhanced by the simple coadministration | longer progression-free survival | proteolytical cleavage at the Lys^5–Gly^6 bond | can inhibit tumor migration and induce chemorepulsion
